According to US20240252586A1, “ENGINEERED ANTIMICROBIAL PEPTIDES AND USAGE THEREOF” (priority 2021, published 2024):
Where “and” joins values, the source holds several entries; their conditions need not be identical. Identical values can stand only once. Like-named read-outs stand apart in the source and are kept apart here. Where no end group is shown, it is not given here.

Columns and labels:
Enterobacterales = test: Broth microdilution MIC, PJI isolates (Example 1); assay type: cell-based; settings: RPMI; N = 22
Method: (§1) Imipenem, levofloxacin, tigecycline, linezolid, vancomycin, oxacillin, ceftazidime, colistin, and amikacin were tested as comparators. Testing was conducted in accordance with guidelines from the Clinical and Laboratory Standards Institute (CLSI; M7 and M100). Test organisms comprised reference strains from the American Type Culture Collection, the Centers for Disease Control Antibiotic Reference Bank and clinical isolates from the Micromyx repository.

S. aureus NRS 382 = tested on: S. aureus NRS 382
Method: (§2) SEQ ID NO: 1 stocks were made at 5.12 mg/mL in water adjusted to pH of 5.0 with 1% glacial acetic acid.
(§3) The test organisms (Table 7) consisted of clinical isolates from the Micromyx (MMX) repository, a reference isolate from the American Type Culture Collection (ATCC, Manassas, VA) and the Centers for Disease Control (CDC, Atlanta GA). Upon initial receipt, the isolates were streaked under suitable conditions onto agar medium appropriate to each organism. The organisms were incubated for 18-24 hr at 35° C. in ambient atmosphere. Colonies harvested from these growth plates were resuspended in the appropriate medium containing a cryoprotectant. Aliquots of each suspension were then stored frozen at −80° C. Prior to testing, all organisms were cultured onto trypticase soy agar containing 5% sheep blood. The agar plates were incubated as described above.
(§4) The Test media used for MIC and FIC were testing were cation-adjusted Mueller-Hinton broth (CAMHB) and Roswell Park Memorial Institute (RPMI-1640), buffered with 3-(N-morpholino)propanesulfonic acid (MOPS). Each test media was supplemented with 0.002% Tween-80 (P-80) prior to testing.
(§5) MIC assay plates were prepared for broth microdilution in accordance with guidelines from the Clinical and Laboratory Standards Institute (CLSI); automated liquid handlers (Biomek 3000 and Biomek FX) and multi-channel pipettes were used to conduct serial dilutions and liquid transfers. MIC assay plates were prepared using a 96-well, deep-well microdilution plate that mimicked the layout of the daughter plates.
(§6) For the mother plate, wells across the standard 96-well microdilution plate were filled with 150 μL of sterile saline 0.002% P-80 in columns 2 through 12. […] The Biomek 300 was used to make eleven 2-fold serial dilutions horizontally across each row of the plate from columns 2 through 11. The Biomek FX was then used to transfer 5 μL of the SEQ ID NO: 1 and saline 0.002% P-80 to the daughter plates.
(§7) A standardized inoculum of each organism was prepared per CLSI methods. Suspensions were prepared to equal a 0.5 McFarland standard followed by a 1:10 dilution into test medium. The inocula were dispensed into sterile reservoirs divided by length and the Biomek 3000 was used to inoculate the plates. Daughter plates were placed on the Biomek 3000 work surface in reverse orientation so that inoculation took place from low to high drug concentration. The Biomek 3000 delivered 10 μL of the diluted suspension into each well. These inoculations yielded a final cell concentration in the daughter plates of approximately 5×10^5 CFU/mL in each well. Plates were incubated at 35° C. for 16-20 hr. The microplates were viewed from the bottom using a plate viewer and the MIC was recorded as the lowest concentration of drug that inhibited visible growth of the organism.

P. aeruginosa CDC 0515 = tested on: P. aeruginosa CDC 0515
Method: as §2, §3, §4, §5, §6, §7

S. epidermidis MMX 5129 = tested on: S. epidermidis MMX 5129
Method: as §2, §3, §4, §5, §6, §7

P. aeruginosa CDC 0509 = tested on: P. aeruginosa CDC 0509
Method: as §2, §3, §4, §5, §6, §7

S. epidermidis MMX 3628 = tested on: S. epidermidis MMX 3628
Method: as §2, §3, §4, §5, §6, §7

P. aeruginosa ATCC 27853 = tested on: P. aeruginosa ATCC 27853
Method: as §2, §3, §4, §5, §6, §7

[1] = tested on: P. aeruginosa CDC 0515 biofilm; test: Microtiter plate biofilm studies (previous), resazurin viability
From the text: In those previous studies, mature biofilms were formed on polystyrene microtiter plates through growth in CAMHB, followed by exposure to SEQ ID NO: 1 and resazurin addition to measure cell viability.

CoNS non-epidermidis = test: Broth microdilution MIC, PJI isolates (Example 1); assay type: cell-based, coagulase-negative staphylococci; settings: RPMI; N = 53
Method: as §1

RRWVRRVRRVWRRVVRVVRRWVRR [SEQ ID NO: 1] gave an MIC50 (Enterobacterales) of 0.5 µg/mL, an MIC90 (Enterobacterales) of 0.5 µg/mL and an MIC (S. aureus NRS 382; RPMI) of 0.5 µg/mL. It also gave an MIC (S. aureus NRS 382; stated in FIG. 2 legends (time-kill), printed S. aureus NRS 382) of 8 µg/mL, an MIC (P. aeruginosa CDC 0515; CAMHB) of 8 µg/mL and an MIC (P. aeruginosa CDC 0515; RPMI) of 1 µg/mL. For the same sequence, the MIC (S. epidermidis MMX 5129; CAMHB) was 1 µg/mL, the MIC (S. epidermidis MMX 5129; RPMI) was 0.12 µg/mL and the MIC (P. aeruginosa CDC 0509; CAMHB) was 8 µg/mL. For the same sequence, the MIC (P. aeruginosa CDC 0509; RPMI) was 4 µg/mL, the MIC (P. aeruginosa CDC 0509; stated in FIG. 5 legends (time-kill), printed P. Aeruginosa CDC 0451) was 16 µg/mL and the MIC (S. epidermidis MMX 3628; CAMHB) was 0.25 µg/mL. It also gave an MIC (S. epidermidis MMX 3628; RPMI) of 0.12 µg/mL, an MIC (P. aeruginosa ATCC 27853; CAMHB) of 8 µg/mL and an MIC (P. aeruginosa ATCC 27853; RPMI) of 2 µg/mL. For the same sequence, the “decrease in cell viability (resazurin reduction)” value ([1]; 500 μg/mL, 15 minutes) was “ca. 70%”, the MIC ([1]; two previous microtiter plate biofilm studies) was 8 µg/mL and 16 µg/mL and the MIC50 (CoNS non-epidermidis) was 0.06 µg/mL. The MIC90 (CoNS non-epidermidis) was 0.06 µg/mL.
